Experimental data from US4746349A, “Method and compositions for suppressing the nitrification of ammonium in plant growth medium” (American Cyanamid Company, priority 1986, dated 1988).
Counter-ions that a name gives are not always drawn.

What was measured:
[1] = tested on: corn (Dekalb T2000, B73×LH 38); assay: Field evaluation: corn ear leaf tissue nitrogen, silt loam plots; format: in vivo; conditions: inhibitor 0.11 kg/ha, ear leaf at silking
Nitrobacter spp. = assay: Nitrite nitrogen in ammonium amended soil incubated at 25° C.; conditions: soil 25° C., 200 ppm N
Experimental: Determination of nitrite nitrogen and nitrate nitrogen in soil prepared in Example 1 above, which is amended with 200 ppm of nitrogen as aqueous ammonium sulfate, […], is determined using the nitrite and nitrate analysis of the American Organization of Analytical Chemists (AOAC pp. 653-655).

[2] = tested on: corn (Dekalb T2000, B73×LH 38); assay: Field evaluation: corn ear leaf tissue nitrogen, silt loam plots; format: in vivo; conditions: for Corn Leaf Tissue Analysis (total N): ear leaf at silking
Description: Field Evaluation: Field evaluations are based on the N content of corn leaf tissue and grain yield utilizing two soil types. Replicate (4X) field plots are established at two different locations, one having (I) silt loam soil and one (II) with sandy loam soil. These soils had been previously cropped to non-fertilized corn to reduce the level of residual N. Maduramicin monoammonium salt is applied (0.25, 0.125, 0.07 ppm) with NH3 (84 or 168 kg N/ha) through a "downstream" by an injection system into silt loam plots. Nitrapyrin (0.25 ppm=0.56 kg a.i./ha), nitrogen checks, benzyl alcohol (1.16L/ha) (BA) and a O nitrogen check are included for comparison. Individual replicate plot sizes are 3.04M×22.8M (4, 76-cm corn rows×22.8M long) Anhydrous ammonia are injected on 76-cm centers.
Urea, treated or non-treated with Maduramicin monoammonium salt is broadcast on the surface of sandy loam plots. Plots are then planted with corn the day following treatment. Dekalb T2000 is planted 10 May on silt loam plots and Pioneer 3352 is planted 11 May in sandy loam plots.
Corn ear leaf tissues collected at silking on silt loam plots or 60 days post silking (on silt loam and sandy loam plots) are collected from each plot and assayed for total N (AOAC procedures). Grain yields are determined by harvesting the two center rows×15.2 m of each plot.

Nitrosomonas spp. = assay: Nitrification of ammonium in soil incubated at 25° C. (ammonium recovery, nitrate accumulation); conditions: soil 25° C.; for Concentration of nitrate nitrogen / Recovery of Ammonium Nitrogen: 200 ppm N; for Effectiveness as nitrification inhibitor, in words: 20 weeks study
Method in brief: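 Ammonium recovery and nitrate accumulation read out after KCl extraction (2M, 1 h shaking) and steam distillation of ammonium, nitrite and nitrate. Soil was amended with 200 ppm N as ammonium sulfate and 0.10–0.50 ppm inhibitor, held at 50% water saturation at 25 °C, sampled 0–20 weeks in duplicate.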

CO[C@@H]1[C@@H](OC)[C@H](C)[C@@](O)(CC(=O)O)O[C@H]1[C@H](C)[C@H]1O[C@@]2(CC[C@@](C)([C@H]3CC[C@@](C)([C@@H]4O[C@@H]([C@H]5O[C@](C)(O)[C@H](C)C[C@@H]5C)C[C@@H]4O[C@@H]4C[C@H](OC)[C@@H](OC)[C@H](C)O4)O3)O2)C[C@H](O)[C@H]1C [Maduramicin monoammonium salt, Maduramicin]
Corn Leaf Tissue Analysis (total N) ([1]; NH3 84 kg N/ha): 257 10^2 ug/g
Corn Leaf Tissue Analysis (total N) ([1]; NH3 168 kg N/ha): 268 10^2 ug/g
Concentration of nitrite nitrogen (Nitrobacter spp.; 0.10 ppm, week 0): 6 ppm
Concentration of nitrite nitrogen (Nitrobacter spp.; 0.10 ppm, week 1): 17 ppm
Concentration of nitrite nitrogen (Nitrobacter spp.; 0.10 ppm, week 2): 2 ppm
Concentration of nitrite nitrogen (Nitrobacter spp.; 0.10 ppm, week 4): 3 ppm
Concentration of nitrite nitrogen (Nitrobacter spp.; 0.10 ppm, week 7): 12 ppm
Concentration of nitrite nitrogen (Nitrobacter spp.; 0.10 ppm, week 9): 49 ppm
Concentration of nitrite nitrogen (Nitrobacter spp.; 0.10 ppm, week 12): 9 ppm
Concentration of nitrite nitrogen (Nitrobacter spp.; 0.10 ppm, week 16): 14 ppm
Concentration of nitrite nitrogen (Nitrobacter spp.; 0.10 ppm, week 20): 56 ppm
Concentration of nitrite nitrogen (Nitrobacter spp.; 0.25 ppm, week 0): 7 ppm
Concentration of nitrite nitrogen (Nitrobacter spp.; 0.25 ppm, week 1): 2 ppm
Concentration of nitrite nitrogen (Nitrobacter spp.; 0.25 ppm, week 2): 7 ppm
Concentration of nitrite nitrogen (Nitrobacter spp.; 0.25 ppm, week 4): 0 ppm
Concentration of nitrite nitrogen (Nitrobacter spp.; 0.25 ppm, week 7): -5 ppm
Concentration of nitrite nitrogen (Nitrobacter spp.; 0.25 ppm, week 9): 12 ppm
Concentration of nitrite nitrogen (Nitrobacter spp.; 0.25 ppm, week 12): 0 ppm
Concentration of nitrite nitrogen (Nitrobacter spp.; 0.25 ppm, week 16): -2 ppm
Concentration of nitrite nitrogen (Nitrobacter spp.; 0.25 ppm, week 20): 33 ppm
Concentration of nitrite nitrogen (Nitrobacter spp.; 0.50 ppm, week 0): 8 ppm
Concentration of nitrite nitrogen (Nitrobacter spp.; 0.50 ppm, week 1): 10 ppm
Concentration of nitrite nitrogen (Nitrobacter spp.; 0.50 ppm, week 2): 4 ppm
Concentration of nitrite nitrogen (Nitrobacter spp.; 0.50 ppm, week 4): 4 ppm
Concentration of nitrite nitrogen (Nitrobacter spp.; 0.50 ppm, week 7): -8 ppm
Concentration of nitrite nitrogen (Nitrobacter spp.; 0.50 ppm, week 9): -4 ppm
Concentration of nitrite nitrogen (Nitrobacter spp.; 0.50 ppm, week 12): 4 ppm
Concentration of nitrite nitrogen (Nitrobacter spp.; 0.50 ppm, week 16): -13 ppm
Concentration of nitrite nitrogen (Nitrobacter spp.; 0.50 ppm, week 20): 14 ppm
Corn Leaf Tissue Analysis (total N) ([2]; inhibitor 0.28 kg/ha, NH3 84 kg N/ha): 256 10^2 ug/g
Corn Leaf Tissue Analysis (total N) ([2]; inhibitor 0.28 kg/ha, NH3 168 kg N/ha): 275 10^2 ug/g
Corn Leaf Tissue Analysis (total N) ([2]; inhibitor 0.56 kg/ha, NH3 84 kg N/ha): 258 10^2 ug/g
Corn Leaf Tissue Analysis (total N) ([2]; inhibitor 0.56 kg/ha, NH3 168 kg N/ha): 281 10^2 ug/g
More nitrogen in leaf tissue than control plots with similar nitrogen ([2]; silt loam plots): 15-25%
Tissue N compared with nitrapyrin-treated plants, in words ([2]; three rates, silt loam plots): slightly higher than nitrapyrin-treated plants
Effectiveness compared with 0.5 ppm nitrapyrin, in words (Nitrosomonas spp.; 0.10 ppm): not as effective as the 0.5 ppm rate of nitrapyrin
Concentration of nitrate nitrogen (Nitrosomonas spp.; 0.10 ppm, week 0): 18 PPM
Recovery of Ammonium Nitrogen (Nitrosomonas spp.; 0.10 ppm, week 0): 195 PPM
Concentration of nitrate nitrogen (Nitrosomonas spp.; 0.10 ppm, week 1): 20 PPM
Recovery of Ammonium Nitrogen (Nitrosomonas spp.; 0.10 ppm, week 1): 168 PPM
Concentration of nitrate nitrogen (Nitrosomonas spp.; 0.10 ppm, week 2): 19 PPM
Recovery of Ammonium Nitrogen (Nitrosomonas spp.; 0.10 ppm, week 2): 178 PPM
Concentration of nitrate nitrogen (Nitrosomonas spp.; 0.10 ppm, week 4): 24 PPM
Recovery of Ammonium Nitrogen (Nitrosomonas spp.; 0.10 ppm, week 4): 176 PPM
Concentration of nitrate nitrogen (Nitrosomonas spp.; 0.10 ppm, week 7): 75 PPM
Recovery of Ammonium Nitrogen (Nitrosomonas spp.; 0.10 ppm, week 7): 125 PPM
Concentration of nitrate nitrogen (Nitrosomonas spp.; 0.10 ppm, week 9): 59 PPM
Recovery of Ammonium Nitrogen (Nitrosomonas spp.; 0.10 ppm, week 9): 110 PPM
Concentration of nitrate nitrogen (Nitrosomonas spp.; 0.10 ppm, week 12): 152 PPM
Recovery of Ammonium Nitrogen (Nitrosomonas spp.; 0.10 ppm, week 12): 55 PPM
Concentration of nitrate nitrogen (Nitrosomonas spp.; 0.10 ppm, week 16): 153 PPM
Recovery of Ammonium Nitrogen (Nitrosomonas spp.; 0.10 ppm, week 16): 67 PPM
Concentration of nitrate nitrogen (Nitrosomonas spp.; 0.10 ppm, week 20): 134 PPM
Recovery of Ammonium Nitrogen (Nitrosomonas spp.; 0.10 ppm, week 20): 39 PPM
Specific inhibition of nitrification through activity against Nitrosomonas spp., in words (Nitrosomonas spp.; 0.1 to 0.5 ppm): appear to specifically inhibit nitrification through activity against Nitrosomonas spp.
Concentration of nitrate nitrogen (Nitrosomonas spp.; 0.25 ppm, week 0): 19 PPM
Recovery of Ammonium Nitrogen (Nitrosomonas spp.; 0.25 ppm, week 0): 194 PPM
Concentration of nitrate nitrogen (Nitrosomonas spp.; 0.25 ppm, week 1): 18 PPM
Recovery of Ammonium Nitrogen (Nitrosomonas spp.; 0.25 ppm, week 1): 162 PPM
Concentration of nitrate nitrogen (Nitrosomonas spp.; 0.25 ppm, week 2): 19 PPM
Recovery of Ammonium Nitrogen (Nitrosomonas spp.; 0.25 ppm, week 2): 164 PPM
Concentration of nitrate nitrogen (Nitrosomonas spp.; 0.25 ppm, week 4): 19 PPM
Recovery of Ammonium Nitrogen (Nitrosomonas spp.; 0.25 ppm, week 4): 187 PPM
Concentration of nitrate nitrogen (Nitrosomonas spp.; 0.25 ppm, week 7): 21 PPM
Recovery of Ammonium Nitrogen (Nitrosomonas spp.; 0.25 ppm, week 7): 198 PPM
Concentration of nitrate nitrogen (Nitrosomonas spp.; 0.25 ppm, week 9): 25 PPM
Recovery of Ammonium Nitrogen (Nitrosomonas spp.; 0.25 ppm, week 9): 185 PPM
Concentration of nitrate nitrogen (Nitrosomonas spp.; 0.25 ppm, week 12): 23 PPM
Recovery of Ammonium Nitrogen (Nitrosomonas spp.; 0.25 ppm, week 12): 192 PPM
Concentration of nitrate nitrogen (Nitrosomonas spp.; 0.25 ppm, week 16): 64 PPM
Recovery of Ammonium Nitrogen (Nitrosomonas spp.; 0.25 ppm, week 16): 164 PPM
Concentration of nitrate nitrogen (Nitrosomonas spp.; 0.25 ppm, week 20): 85 PPM
Recovery of Ammonium Nitrogen (Nitrosomonas spp.; 0.25 ppm, week 20): 102 PPM
Time through which nitrification is delayed or inhibited (Nitrosomonas spp.; 0.5 ppm): ≥ 20 weeks
Concentration of nitrate nitrogen (Nitrosomonas spp.; 0.50 ppm, week 0): 18 PPM
Recovery of Ammonium Nitrogen (Nitrosomonas spp.; 0.50 ppm, week 0): 194 PPM
Concentration of nitrate nitrogen (Nitrosomonas spp.; 0.50 ppm, week 1): 20 PPM
Recovery of Ammonium Nitrogen (Nitrosomonas spp.; 0.50 ppm, week 1): 162 PPM
Concentration of nitrate nitrogen (Nitrosomonas spp.; 0.50 ppm, week 2): 18 PPM
Recovery of Ammonium Nitrogen (Nitrosomonas spp.; 0.50 ppm, week 2): 166 PPM
Concentration of nitrate nitrogen (Nitrosomonas spp.; 0.50 ppm, week 4): 21 PPM
Recovery of Ammonium Nitrogen (Nitrosomonas spp.; 0.50 ppm, week 4): 170 PPM
Concentration of nitrate nitrogen (Nitrosomonas spp.; 0.50 ppm, week 7): 21 PPM
Recovery of Ammonium Nitrogen (Nitrosomonas spp.; 0.50 ppm, week 7): 194 PPM
Concentration of nitrate nitrogen (Nitrosomonas spp.; 0.50 ppm, week 9): 25 PPM
Recovery of Ammonium Nitrogen (Nitrosomonas spp.; 0.50 ppm, week 9): 193 PPM
Concentration of nitrate nitrogen (Nitrosomonas spp.; 0.50 ppm, week 12): 18 PPM
Recovery of Ammonium Nitrogen (Nitrosomonas spp.; 0.50 ppm, week 12): 189 PPM
Concentration of nitrate nitrogen (Nitrosomonas spp.; 0.50 ppm, week 16): 28 PPM
Recovery of Ammonium Nitrogen (Nitrosomonas spp.; 0.50 ppm, week 16): 209 PPM
Concentration of nitrate nitrogen (Nitrosomonas spp.; 0.50 ppm, week 20): 44 PPM
Recovery of Ammonium Nitrogen (Nitrosomonas spp.; 0.50 ppm, week 20): 175 PPM
Effectiveness as nitrification inhibitor, in words (Nitrosomonas spp.; X-14868A monammonium salt): most effective nitrification inhibitor
Effectiveness as nitrification inhibitor, in words (Nitrosomonas spp.; X-14868 monoammonium salt): considerably more effective than nitrapyrin
